In ChEMBL document CHEMBL5465560, “Selectivity Literature for EUbOPEN Chemogenomic Library” (2024) one finds % of control and % of inhibition data, which are given here for five compounds.

The subject of test [1] is Phosphatidylinositol 4,5-bisphosphate 3-kinase catalytic subunit alpha isoform (Homo sapiens), P42336 [E545K]. Briefly: (§1) Selectivity interaction (KinomeScan (DiscoverX)) EUB0000695a PIK3CA. To be noted: at 100 nM.
In test [2] the test system is Phosphatidylinositol 4,5-bisphosphate 3-kinase catalytic subunit alpha isoform (Homo sapiens), P42336 [H1047L]. Described as §1. To be noted: at 100 nM.
The subject of test [3] is Phosphatidylinositol 4,5-bisphosphate 3-kinase catalytic subunit alpha isoform (Homo sapiens), P42336 [C420R]. The test is described as §1. To be noted: at 100 nM.
Test [4] deals with Phosphatidylinositol 4,5-bisphosphate 3-kinase catalytic subunit alpha isoform (Homo sapiens), P42336 [M1043I]. The description is as §1. To be noted: at 100 nM.
For test [5], the system named is Phosphatidylinositol 4,5-bisphosphate 3-kinase catalytic subunit alpha isoform (Homo sapiens), P42336 [E542K]. Described as §1. Particulars: at 100 nM.
Test [6] deals with Phosphatidylinositol 4,5-bisphosphate 3-kinase catalytic subunit alpha isoform (Homo sapiens), P42336 [E545A]. The test is described as §1. Particulars: at 100 nM.
Test [7] relates to Phosphatidylinositol 4,5-bisphosphate 3-kinase catalytic subunit alpha isoform (Homo sapiens), P42336 [H1047Y]. The test is described as §1. Particulars: at 100 nM.
Test [8] has as its system Phosphatidylinositol 4,5-bisphosphate 3-kinase catalytic subunit alpha isoform (Homo sapiens), P42336 [Q546K]. Described as §1. To be noted: at 100 nM.
Test [9] relates to Phosphatidylinositol 4,5-bisphosphate 3-kinase catalytic subunit alpha isoform (Homo sapiens), P42336 [I800L]. The test is described as §1. To be noted: at 100 nM.
The target of test [10] is Phosphatidylinositol 4,5-bisphosphate 3-kinase catalytic subunit alpha isoform (Homo sapiens) (UniProt P42336). Described as §1. Particulars: at 100 nM.
The target of test [11] is T1, G protein-coupled receptor kinase 3 (Homo sapiens) (UniProt P35626).
T1 sequence (whole entry): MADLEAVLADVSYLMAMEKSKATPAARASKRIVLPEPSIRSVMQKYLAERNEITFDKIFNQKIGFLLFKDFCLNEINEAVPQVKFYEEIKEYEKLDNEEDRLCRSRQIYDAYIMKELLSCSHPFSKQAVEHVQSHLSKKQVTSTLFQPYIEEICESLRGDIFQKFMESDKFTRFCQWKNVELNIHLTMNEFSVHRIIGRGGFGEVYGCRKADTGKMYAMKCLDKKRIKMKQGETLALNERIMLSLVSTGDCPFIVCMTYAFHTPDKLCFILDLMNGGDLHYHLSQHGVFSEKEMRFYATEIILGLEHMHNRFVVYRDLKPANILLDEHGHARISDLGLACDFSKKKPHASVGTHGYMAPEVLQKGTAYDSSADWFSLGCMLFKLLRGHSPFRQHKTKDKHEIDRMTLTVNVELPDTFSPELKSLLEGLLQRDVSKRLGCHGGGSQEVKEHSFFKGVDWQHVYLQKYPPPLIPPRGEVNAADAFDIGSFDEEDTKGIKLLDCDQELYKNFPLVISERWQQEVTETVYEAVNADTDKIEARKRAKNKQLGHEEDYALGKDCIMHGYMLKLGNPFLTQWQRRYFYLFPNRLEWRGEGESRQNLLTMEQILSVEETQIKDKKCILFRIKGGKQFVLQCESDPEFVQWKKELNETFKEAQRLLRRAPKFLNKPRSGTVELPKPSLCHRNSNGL
Kind of test: Selectivity interaction (SelectScreen profiling (Invitrogen)) EUB0000607a ADRBK2. To be noted: at 2 µM.

The target in test [12] is T2, Ephrin type-B receptor 1 (Homo sapiens) (UniProt P54762).
T2 sequence (whole entry): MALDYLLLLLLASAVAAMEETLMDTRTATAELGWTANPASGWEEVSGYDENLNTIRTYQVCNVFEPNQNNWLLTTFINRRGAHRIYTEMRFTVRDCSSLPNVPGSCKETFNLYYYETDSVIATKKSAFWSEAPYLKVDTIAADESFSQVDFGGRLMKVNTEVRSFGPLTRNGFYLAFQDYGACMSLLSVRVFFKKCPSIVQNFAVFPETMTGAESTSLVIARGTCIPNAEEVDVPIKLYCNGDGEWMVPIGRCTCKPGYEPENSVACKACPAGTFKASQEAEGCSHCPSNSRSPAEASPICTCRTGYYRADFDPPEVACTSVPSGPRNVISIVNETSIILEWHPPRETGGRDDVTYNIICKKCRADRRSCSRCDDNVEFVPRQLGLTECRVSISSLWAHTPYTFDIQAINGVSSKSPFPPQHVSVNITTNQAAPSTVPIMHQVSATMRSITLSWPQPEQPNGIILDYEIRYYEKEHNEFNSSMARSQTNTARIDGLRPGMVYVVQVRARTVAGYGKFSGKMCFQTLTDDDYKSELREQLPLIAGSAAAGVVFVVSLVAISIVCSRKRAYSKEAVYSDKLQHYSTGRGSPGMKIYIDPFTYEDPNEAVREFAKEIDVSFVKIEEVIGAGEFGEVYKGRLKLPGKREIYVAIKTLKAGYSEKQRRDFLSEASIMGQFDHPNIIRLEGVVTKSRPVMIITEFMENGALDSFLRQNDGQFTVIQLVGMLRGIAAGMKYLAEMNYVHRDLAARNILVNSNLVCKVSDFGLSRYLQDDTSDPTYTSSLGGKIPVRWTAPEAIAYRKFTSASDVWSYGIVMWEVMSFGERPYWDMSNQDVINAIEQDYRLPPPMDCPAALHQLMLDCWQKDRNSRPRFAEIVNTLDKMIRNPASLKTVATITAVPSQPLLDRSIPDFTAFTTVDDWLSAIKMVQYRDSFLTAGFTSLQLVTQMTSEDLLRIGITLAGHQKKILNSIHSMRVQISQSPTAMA
Briefly: Selectivity interaction (Kinase panel (Invitrogen)) EUB0000639a EPHB1. Particulars: at 200 nM.

The target in test [13] is T3, Dual specificity mitogen-activated protein kinase kinase 4 (Homo sapiens) (UniProt P45985).
T3 sequence (whole entry): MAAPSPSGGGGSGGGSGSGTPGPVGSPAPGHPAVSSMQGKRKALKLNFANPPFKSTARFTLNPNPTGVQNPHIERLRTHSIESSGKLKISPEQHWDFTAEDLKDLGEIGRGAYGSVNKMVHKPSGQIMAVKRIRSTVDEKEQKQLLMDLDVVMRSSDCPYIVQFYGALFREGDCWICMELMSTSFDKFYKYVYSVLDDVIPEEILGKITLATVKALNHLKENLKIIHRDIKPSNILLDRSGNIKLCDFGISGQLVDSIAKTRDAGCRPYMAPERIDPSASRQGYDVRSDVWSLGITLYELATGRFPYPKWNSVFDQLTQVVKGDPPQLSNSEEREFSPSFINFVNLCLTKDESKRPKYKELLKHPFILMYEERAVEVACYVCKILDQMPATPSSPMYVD
Briefly: Selectivity interaction (ActivX KiNativ screen (kinase selectivity in THP-1 cell lysates)) EUB0000639a MAP2K4. The format is subcellular. To be noted: lysate, at 5 µM.

For test [14], the target named is 5'-AMP-activated protein kinase catalytic subunit alpha-1 (Homo sapiens, UniProt Q13131). Briefly: Selectivity interaction (Kinase panel (Invitrogen)) EUB0000639a PRKAA1. To be noted: at 200 nM.
In test [15] the target is G protein-coupled receptor kinase 4 (Homo sapiens) (UniProt P32298). Kind of test: Selectivity interaction (KinomeScan (DiscoverX)) EUB0000618a GRK4. To be noted: at 10 µM.
In test [16] the target is High affinity nerve growth factor receptor (Homo sapiens, UniProt P04629). Kind of test: Selectivity interaction (Millipore kinase profiler) EUB0000124b NTRK1. To be noted: at 10 µM.
Chain of High affinity nerve growth factor receptor (P04629 33-796 limits assumed): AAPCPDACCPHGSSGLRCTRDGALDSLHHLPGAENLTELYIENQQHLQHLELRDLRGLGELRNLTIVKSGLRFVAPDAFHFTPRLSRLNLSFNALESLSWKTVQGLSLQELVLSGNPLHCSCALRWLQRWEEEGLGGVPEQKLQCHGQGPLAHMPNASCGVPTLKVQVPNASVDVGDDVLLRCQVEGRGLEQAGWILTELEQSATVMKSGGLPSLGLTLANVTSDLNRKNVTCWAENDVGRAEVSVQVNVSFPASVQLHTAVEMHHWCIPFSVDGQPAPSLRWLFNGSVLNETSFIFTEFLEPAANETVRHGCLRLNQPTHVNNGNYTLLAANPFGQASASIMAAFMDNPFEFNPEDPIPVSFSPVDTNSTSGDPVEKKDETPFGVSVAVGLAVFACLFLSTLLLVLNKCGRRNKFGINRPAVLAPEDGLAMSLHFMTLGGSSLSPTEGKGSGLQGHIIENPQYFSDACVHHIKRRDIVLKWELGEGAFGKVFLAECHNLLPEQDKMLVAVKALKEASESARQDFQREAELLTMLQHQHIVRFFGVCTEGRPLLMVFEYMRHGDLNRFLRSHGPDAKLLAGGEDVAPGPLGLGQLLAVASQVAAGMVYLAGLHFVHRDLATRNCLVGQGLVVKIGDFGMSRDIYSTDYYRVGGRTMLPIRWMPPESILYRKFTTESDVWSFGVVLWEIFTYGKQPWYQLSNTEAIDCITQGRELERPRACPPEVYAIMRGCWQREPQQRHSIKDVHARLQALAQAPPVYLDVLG

Chain of G protein-coupled receptor kinase 4 (Homo sapiens) (P32298 whole entry, looked up): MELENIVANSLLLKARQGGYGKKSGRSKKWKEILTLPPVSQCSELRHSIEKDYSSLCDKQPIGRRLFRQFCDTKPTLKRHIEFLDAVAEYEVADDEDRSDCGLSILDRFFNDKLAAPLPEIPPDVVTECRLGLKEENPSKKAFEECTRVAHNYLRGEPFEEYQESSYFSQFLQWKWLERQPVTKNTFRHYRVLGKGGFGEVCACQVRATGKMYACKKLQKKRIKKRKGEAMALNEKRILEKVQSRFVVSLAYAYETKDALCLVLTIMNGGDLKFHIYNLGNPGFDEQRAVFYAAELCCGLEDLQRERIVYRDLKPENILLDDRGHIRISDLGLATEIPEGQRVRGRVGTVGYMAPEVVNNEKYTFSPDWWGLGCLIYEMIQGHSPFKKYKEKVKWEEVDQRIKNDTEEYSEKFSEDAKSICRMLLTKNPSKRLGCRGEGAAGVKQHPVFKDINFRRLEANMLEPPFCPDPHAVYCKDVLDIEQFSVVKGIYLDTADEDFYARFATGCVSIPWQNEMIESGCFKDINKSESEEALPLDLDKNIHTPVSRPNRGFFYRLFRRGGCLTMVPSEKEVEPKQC
Chain of Phosphatidylinositol 4,5-bisphosphate 3-kinase catalytic subunit alpha isoform (Homo sapiens), P42336 [H1047L] (P42336 whole entry H1047L, canonical isoform): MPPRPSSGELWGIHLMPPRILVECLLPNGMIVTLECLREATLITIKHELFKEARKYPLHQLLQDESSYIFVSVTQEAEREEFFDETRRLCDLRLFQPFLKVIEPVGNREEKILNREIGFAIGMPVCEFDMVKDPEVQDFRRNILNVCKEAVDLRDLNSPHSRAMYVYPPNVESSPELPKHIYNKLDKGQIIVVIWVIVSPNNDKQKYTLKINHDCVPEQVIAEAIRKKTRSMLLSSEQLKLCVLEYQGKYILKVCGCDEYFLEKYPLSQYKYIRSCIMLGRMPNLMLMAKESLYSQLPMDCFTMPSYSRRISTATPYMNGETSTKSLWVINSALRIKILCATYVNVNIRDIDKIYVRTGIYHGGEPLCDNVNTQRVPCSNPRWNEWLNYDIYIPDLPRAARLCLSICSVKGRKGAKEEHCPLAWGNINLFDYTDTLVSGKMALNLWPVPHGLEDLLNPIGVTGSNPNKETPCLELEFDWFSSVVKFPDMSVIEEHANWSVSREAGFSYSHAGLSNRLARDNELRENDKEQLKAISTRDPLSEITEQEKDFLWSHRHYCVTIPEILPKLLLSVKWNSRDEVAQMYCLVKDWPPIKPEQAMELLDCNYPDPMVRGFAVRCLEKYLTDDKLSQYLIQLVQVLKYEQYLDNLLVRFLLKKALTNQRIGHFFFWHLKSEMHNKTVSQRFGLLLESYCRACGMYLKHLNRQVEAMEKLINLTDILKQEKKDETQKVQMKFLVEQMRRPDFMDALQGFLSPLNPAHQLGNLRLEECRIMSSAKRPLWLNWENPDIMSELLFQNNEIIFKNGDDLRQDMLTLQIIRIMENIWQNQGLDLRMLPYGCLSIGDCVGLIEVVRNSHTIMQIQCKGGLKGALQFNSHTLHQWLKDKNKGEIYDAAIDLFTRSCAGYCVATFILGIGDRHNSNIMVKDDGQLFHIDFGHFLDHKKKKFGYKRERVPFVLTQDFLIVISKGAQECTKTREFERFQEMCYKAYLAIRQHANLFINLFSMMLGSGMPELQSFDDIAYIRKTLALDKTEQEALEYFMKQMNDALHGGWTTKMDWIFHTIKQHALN
Chain of Phosphatidylinositol 4,5-bisphosphate 3-kinase catalytic subunit alpha isoform (Homo sapiens), P42336 [I800L] (P42336 whole entry I800L, canonical isoform): as the sequence (P42336 whole entry H1047L, canonical isoform) above, with I800L, L1047H counted along it
Chain of Phosphatidylinositol 4,5-bisphosphate 3-kinase catalytic subunit alpha isoform (Homo sapiens), P42336 [E542K] (P42336 whole entry E542K, canonical isoform): as the sequence (P42336 whole entry H1047L, canonical isoform) above, with E542K, L1047H counted along it
Chain of Phosphatidylinositol 4,5-bisphosphate 3-kinase catalytic subunit alpha isoform (Homo sapiens), P42336 [E545A] (P42336 whole entry E545A, canonical isoform): as the sequence (P42336 whole entry H1047L, canonical isoform) above, with E545A, L1047H counted along it
Chain of Phosphatidylinositol 4,5-bisphosphate 3-kinase catalytic subunit alpha isoform (Homo sapiens), P42336 [E545K] (P42336 whole entry E545K, canonical isoform): as the sequence (P42336 whole entry H1047L, canonical isoform) above, with E545K, L1047H counted along it
Chain of Phosphatidylinositol 4,5-bisphosphate 3-kinase catalytic subunit alpha isoform (Homo sapiens), P42336 [C420R] (P42336 whole entry C420R, canonical isoform): as the sequence (P42336 whole entry H1047L, canonical isoform) above, with C420R, L1047H counted along it
Chain of 5'-AMP-activated protein kinase catalytic subunit alpha-1 (Q13131 whole entry, looked up): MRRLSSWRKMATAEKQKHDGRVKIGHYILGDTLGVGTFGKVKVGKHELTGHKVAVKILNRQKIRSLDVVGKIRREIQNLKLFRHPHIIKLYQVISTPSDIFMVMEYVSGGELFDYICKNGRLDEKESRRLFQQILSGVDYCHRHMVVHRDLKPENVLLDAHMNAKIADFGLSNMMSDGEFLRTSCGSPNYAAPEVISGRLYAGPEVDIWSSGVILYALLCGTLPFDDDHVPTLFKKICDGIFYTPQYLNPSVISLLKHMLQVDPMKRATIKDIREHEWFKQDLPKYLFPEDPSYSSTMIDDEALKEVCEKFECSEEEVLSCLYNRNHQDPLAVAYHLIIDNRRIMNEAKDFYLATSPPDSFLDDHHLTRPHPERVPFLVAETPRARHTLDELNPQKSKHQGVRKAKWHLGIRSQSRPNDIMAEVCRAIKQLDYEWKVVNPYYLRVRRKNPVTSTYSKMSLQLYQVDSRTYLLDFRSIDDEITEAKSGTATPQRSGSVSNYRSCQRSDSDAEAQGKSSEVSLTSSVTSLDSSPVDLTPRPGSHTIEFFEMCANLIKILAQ
Chain of Phosphatidylinositol 4,5-bisphosphate 3-kinase catalytic subunit alpha isoform (Homo sapiens), P42336 [H1047Y] (P42336 whole entry H1047Y, canonical isoform): as the sequence (P42336 whole entry H1047L, canonical isoform) above, with L1047Y counted along it
Chain of Phosphatidylinositol 4,5-bisphosphate 3-kinase catalytic subunit alpha isoform (Homo sapiens), P42336 [Q546K] (P42336 whole entry Q546K, canonical isoform): as the sequence (P42336 whole entry H1047L, canonical isoform) above, with Q546K, L1047H counted along it
Chain of Phosphatidylinositol 4,5-bisphosphate 3-kinase catalytic subunit alpha isoform (Homo sapiens) (P42336 whole entry, canonical isoform): as the sequence (P42336 whole entry H1047L, canonical isoform) above, with L1047H counted along it
Chain of Phosphatidylinositol 4,5-bisphosphate 3-kinase catalytic subunit alpha isoform (Homo sapiens), P42336 [M1043I] (P42336 whole entry M1043I, canonical isoform): as the sequence (P42336 whole entry H1047L, canonical isoform) above, with M1043I, L1047H counted along it

For the compound `Cc1cc(F)c(C(=O)Nc2cccc(-c3nncn3C(C)C)n2)cc1-n1cnc(C2CC2)c1`, the % of control in test [1] came to 99%; in test [2], 100%; in test [3], 100%; in test [4], 93%; in [5] it was 100%; in test [6], 100%. Further, the % of control is 100% in [7], 100% in [8], 89% in [9] and 100% in test [10].
Turning to `CNC(=O)Nc1ccc(-c2nc(N3CC4CCC(C3)O4)c3cnn(C4CCC5(CC4)OCCO5)c3n2)cc1`, the % of inhibition in test [11] is -3%.
For `CC[C@@H]1[C@H](F)C(=O)N[C@@H]1COc1nccc2cc(C(N)=O)c(OC)cc12` [ZIMLOVISERTIB], the % of inhibition in test [12] amounted to 1.6%; in test [13], 29.6%; in [14] it was 11%.
Consider `O[C@H]1CC[C@H](Nc2ncc3nc(Nc4c(F)cc(F)cc4F)n([C@H]4CCOC4)c3n2)CC1`, for which the % of control in test [15] was found to be 98%.
In turn, `CC(=O)Nc1cccc(-n2c(=O)n(C3CC3)c(=O)c3c(Nc4ccc(I)cc4F)n(C)c(=O)c(C)c32)c1` displayed a % of control in test [16] of 59%.
